Calls of active or inactive are those of the source.
What was measured:
[1] = biological target: Arf-GAP with SH3 domain, ANK repeat and PH domain-containing protein 1 (Homo sapiens, UniProt Q9ULH1); format: functional;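 also: biochemical fluorescence polarization dose–response screen measuring inhibition of ASAP1; ASAP1 GAP domain stimulating GTP hydrolysis by truncated human ARF1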
[2] = biological target: T1, Apoptotic protease-activating factor 1 (Homo sapiens, UniProt O14727); format: functional
T1 sequence (O14727 whole entry): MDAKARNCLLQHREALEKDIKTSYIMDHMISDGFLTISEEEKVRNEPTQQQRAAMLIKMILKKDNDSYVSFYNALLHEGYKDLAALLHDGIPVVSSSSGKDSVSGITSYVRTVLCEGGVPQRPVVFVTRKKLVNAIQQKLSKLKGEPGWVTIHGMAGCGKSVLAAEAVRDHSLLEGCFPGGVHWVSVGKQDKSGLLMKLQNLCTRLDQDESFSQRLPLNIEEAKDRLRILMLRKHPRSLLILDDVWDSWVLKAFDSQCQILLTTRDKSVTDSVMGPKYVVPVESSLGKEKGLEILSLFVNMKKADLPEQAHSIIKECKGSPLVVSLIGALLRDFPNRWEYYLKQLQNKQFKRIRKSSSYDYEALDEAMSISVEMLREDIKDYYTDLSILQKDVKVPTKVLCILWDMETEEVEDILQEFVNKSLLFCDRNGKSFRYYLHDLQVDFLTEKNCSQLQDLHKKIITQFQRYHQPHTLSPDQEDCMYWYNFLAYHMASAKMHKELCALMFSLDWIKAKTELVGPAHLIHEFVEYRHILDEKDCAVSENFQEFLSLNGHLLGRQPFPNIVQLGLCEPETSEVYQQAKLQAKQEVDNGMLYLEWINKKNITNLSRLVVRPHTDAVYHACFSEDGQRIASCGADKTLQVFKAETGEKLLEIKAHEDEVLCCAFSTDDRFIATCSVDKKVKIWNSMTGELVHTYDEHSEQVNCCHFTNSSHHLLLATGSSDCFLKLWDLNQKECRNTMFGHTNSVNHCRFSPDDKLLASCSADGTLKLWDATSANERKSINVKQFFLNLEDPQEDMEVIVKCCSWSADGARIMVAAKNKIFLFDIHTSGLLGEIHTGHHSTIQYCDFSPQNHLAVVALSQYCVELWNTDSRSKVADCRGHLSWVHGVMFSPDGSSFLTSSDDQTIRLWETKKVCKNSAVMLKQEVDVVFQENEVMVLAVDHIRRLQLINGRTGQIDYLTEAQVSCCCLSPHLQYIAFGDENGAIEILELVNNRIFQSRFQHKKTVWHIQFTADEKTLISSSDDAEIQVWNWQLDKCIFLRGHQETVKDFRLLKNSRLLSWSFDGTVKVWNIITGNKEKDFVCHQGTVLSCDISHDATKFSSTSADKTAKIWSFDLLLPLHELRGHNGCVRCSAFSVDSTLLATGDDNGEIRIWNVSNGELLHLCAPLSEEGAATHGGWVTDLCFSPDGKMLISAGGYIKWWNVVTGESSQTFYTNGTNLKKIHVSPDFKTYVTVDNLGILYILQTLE

[3] = biological target: Adenosylmethionine-8-amino-7-oxononanoate aminotransferase (Mycobacterium tuberculosis, UniProt P9WQ81); experiment: Mycobacterium tuberculosis BioA enzyme inhibitor Measured in Biochemical System Using Plate Reader - 2163-02_Inhibitor_Dose_CherryPick_Activity.; format: functional, Mycobacterium tuberculosis UT205
Chain of Adenosylmethionine-8-amino-7-oxononanoate aminotransferase (P9WQ81 whole entry): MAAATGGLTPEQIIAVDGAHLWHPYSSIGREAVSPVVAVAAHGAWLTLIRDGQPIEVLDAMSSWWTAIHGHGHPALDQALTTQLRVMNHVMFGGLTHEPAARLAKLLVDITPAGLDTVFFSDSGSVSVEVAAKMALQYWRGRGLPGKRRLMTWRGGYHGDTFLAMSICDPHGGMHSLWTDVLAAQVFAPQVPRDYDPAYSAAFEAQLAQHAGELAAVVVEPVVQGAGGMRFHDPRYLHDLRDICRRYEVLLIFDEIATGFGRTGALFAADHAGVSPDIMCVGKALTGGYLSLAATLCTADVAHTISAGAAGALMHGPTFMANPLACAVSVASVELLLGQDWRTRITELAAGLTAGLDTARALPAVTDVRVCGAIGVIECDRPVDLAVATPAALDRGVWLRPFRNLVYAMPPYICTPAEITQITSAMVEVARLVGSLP

[4] = biological target: T2, DNA repair and recombination protein RAD54-like (Homo sapiens, UniProt Q92698); experiment: inhibitors of human RAD54 branch migration, confirmation, biochemical, fluorescence, cherry-picked samples, dose series (AID 651657); format: functional
T2 sequence (Q92698 whole entry): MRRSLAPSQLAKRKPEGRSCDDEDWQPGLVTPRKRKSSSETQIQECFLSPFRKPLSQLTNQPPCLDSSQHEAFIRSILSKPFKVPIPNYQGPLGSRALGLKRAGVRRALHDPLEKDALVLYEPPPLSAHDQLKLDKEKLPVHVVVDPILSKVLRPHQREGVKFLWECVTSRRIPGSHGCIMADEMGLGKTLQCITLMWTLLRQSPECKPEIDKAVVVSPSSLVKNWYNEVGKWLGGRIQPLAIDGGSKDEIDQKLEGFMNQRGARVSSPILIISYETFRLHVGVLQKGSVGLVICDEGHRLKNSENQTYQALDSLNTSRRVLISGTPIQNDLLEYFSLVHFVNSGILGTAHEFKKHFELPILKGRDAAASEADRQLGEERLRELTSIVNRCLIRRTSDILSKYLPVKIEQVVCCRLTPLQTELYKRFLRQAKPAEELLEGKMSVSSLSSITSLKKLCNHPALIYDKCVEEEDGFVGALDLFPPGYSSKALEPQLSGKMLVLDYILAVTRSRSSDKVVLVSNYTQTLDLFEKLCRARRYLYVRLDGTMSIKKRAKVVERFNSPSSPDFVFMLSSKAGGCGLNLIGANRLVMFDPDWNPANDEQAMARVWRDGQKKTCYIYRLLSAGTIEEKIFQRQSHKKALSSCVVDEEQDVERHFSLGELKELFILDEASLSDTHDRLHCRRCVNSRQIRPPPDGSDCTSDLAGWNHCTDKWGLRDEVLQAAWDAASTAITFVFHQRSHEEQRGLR

[5] = biological target: T3, Sentrin-specific protease 1 (Homo sapiens, UniProt Q9P0U3); experiment: potency of human SENP1 inhibitors, dose response, biochemical, kinetic FRET (AID 651697); format: functional; settings: read-out: IC50_Mean
T3 sequence (Q9P0U3 whole entry): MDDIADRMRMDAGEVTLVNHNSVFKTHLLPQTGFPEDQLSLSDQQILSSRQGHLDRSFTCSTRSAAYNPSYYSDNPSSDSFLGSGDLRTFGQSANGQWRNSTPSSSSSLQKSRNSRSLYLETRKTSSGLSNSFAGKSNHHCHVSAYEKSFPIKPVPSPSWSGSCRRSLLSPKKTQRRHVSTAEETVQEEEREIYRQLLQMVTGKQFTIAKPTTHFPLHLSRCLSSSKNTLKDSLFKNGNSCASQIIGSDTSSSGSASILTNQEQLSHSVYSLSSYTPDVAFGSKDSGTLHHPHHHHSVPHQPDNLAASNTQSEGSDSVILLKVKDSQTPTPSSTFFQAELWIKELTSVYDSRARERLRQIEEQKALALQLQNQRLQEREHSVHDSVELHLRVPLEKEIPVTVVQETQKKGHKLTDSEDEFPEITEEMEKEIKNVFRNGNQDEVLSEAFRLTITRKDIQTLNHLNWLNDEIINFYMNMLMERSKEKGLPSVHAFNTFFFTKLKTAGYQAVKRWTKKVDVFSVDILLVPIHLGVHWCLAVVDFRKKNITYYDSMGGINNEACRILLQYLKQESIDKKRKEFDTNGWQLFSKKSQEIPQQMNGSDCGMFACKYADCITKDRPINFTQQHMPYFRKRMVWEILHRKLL

[6] = biological target: T3, Sentrin-specific protease 1; experiment: Dose response confirmation of small molecule inhibitors of the catalytic domain of the SUMO protease, SENP1 in a FRET assay.; format: functional; settings: read-out: IC50_Mean
Interleukin-8 = biological target: T4, Interleukin-8 (Homo sapiens, UniProt P10145); experiment: Dose Response confirmation of uHTS small molecule hits for cystic fibrosis induced NFkb Inhibitors in a PAF-induced IL8 counterscreen.; format: functional; settings: read-out: IC50_Mean
T4 sequence (P10145 whole entry): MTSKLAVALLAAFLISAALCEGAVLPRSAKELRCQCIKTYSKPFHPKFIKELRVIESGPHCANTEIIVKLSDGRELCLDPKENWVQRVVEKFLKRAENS

HEK293 [7] = experiment: HEK cell cytotoxicity by LDH release, dose response, cytotoxicity control for IDE activator project, fluorescence, HEK cells (AID 588440); format: functional, cell-based; settings: Homo sapiens;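 also: cytotoxicity by LDH release measuring loss of membrane integrity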
Insulin-degrading enzyme [8] = biological target: T5, Insulin-degrading enzyme (Homo sapiens, UniProt P14735); experiment: activators of endogenous IDE in HEK cells, dose response, cell-based, fluorescence polarization (AID 588439); format: functional
T5 sequence (P14735 whole entry): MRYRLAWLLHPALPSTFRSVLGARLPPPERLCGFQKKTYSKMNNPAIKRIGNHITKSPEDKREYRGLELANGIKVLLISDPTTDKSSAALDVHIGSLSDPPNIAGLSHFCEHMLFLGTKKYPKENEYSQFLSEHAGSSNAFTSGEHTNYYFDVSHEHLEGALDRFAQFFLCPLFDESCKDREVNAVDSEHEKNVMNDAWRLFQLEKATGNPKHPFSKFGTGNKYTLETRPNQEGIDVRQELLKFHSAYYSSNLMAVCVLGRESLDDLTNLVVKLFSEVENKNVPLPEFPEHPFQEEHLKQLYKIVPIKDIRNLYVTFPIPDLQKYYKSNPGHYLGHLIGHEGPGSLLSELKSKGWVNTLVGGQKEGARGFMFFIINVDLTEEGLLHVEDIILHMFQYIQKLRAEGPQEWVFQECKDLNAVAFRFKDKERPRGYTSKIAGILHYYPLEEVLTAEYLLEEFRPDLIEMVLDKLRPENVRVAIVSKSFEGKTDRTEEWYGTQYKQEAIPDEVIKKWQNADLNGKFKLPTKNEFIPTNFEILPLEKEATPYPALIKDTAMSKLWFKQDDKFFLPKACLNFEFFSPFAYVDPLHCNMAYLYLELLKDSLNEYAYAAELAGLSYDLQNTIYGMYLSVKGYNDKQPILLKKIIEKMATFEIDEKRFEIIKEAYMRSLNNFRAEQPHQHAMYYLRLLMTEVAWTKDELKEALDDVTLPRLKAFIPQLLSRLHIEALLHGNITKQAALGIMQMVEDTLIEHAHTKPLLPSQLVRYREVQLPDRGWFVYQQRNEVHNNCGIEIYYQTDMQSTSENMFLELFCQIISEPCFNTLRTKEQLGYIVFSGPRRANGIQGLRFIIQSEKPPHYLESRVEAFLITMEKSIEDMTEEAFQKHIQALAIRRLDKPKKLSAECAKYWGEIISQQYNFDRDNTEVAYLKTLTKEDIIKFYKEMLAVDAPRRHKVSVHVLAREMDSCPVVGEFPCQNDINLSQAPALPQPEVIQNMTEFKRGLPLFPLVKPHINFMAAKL

HEK293 [9] = experiment: optical interference in Abeta FP readout, dose response, artefact control for IDE activator project, biochemical, fluorescence polarization (AID 588442); format: functional, cell-based; settings: Homo sapiens
Insulin-degrading enzyme [10] = biological target: T5, Insulin-degrading enzyme; experiment: activators of recombinant IDE enzyme, dose response, counter-screen for IDE activator project, biochemical, fluorescence polarization (AID 588681)
Fatty acid synthase [11] = biological target: T6, Fatty acid synthase (Homo sapiens, UniProt P49327); experiment: FAS thioesterase domain inhibitors, dose response, biochemical, kinetic fluorescence intensity (AID 624326); format: functional;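 also: rate of fluorescence rise from hydrolysis of a fluorogenic O-methyl fluorescein ester substrate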
T6 sequence (P49327 whole entry, the tested form may be a part): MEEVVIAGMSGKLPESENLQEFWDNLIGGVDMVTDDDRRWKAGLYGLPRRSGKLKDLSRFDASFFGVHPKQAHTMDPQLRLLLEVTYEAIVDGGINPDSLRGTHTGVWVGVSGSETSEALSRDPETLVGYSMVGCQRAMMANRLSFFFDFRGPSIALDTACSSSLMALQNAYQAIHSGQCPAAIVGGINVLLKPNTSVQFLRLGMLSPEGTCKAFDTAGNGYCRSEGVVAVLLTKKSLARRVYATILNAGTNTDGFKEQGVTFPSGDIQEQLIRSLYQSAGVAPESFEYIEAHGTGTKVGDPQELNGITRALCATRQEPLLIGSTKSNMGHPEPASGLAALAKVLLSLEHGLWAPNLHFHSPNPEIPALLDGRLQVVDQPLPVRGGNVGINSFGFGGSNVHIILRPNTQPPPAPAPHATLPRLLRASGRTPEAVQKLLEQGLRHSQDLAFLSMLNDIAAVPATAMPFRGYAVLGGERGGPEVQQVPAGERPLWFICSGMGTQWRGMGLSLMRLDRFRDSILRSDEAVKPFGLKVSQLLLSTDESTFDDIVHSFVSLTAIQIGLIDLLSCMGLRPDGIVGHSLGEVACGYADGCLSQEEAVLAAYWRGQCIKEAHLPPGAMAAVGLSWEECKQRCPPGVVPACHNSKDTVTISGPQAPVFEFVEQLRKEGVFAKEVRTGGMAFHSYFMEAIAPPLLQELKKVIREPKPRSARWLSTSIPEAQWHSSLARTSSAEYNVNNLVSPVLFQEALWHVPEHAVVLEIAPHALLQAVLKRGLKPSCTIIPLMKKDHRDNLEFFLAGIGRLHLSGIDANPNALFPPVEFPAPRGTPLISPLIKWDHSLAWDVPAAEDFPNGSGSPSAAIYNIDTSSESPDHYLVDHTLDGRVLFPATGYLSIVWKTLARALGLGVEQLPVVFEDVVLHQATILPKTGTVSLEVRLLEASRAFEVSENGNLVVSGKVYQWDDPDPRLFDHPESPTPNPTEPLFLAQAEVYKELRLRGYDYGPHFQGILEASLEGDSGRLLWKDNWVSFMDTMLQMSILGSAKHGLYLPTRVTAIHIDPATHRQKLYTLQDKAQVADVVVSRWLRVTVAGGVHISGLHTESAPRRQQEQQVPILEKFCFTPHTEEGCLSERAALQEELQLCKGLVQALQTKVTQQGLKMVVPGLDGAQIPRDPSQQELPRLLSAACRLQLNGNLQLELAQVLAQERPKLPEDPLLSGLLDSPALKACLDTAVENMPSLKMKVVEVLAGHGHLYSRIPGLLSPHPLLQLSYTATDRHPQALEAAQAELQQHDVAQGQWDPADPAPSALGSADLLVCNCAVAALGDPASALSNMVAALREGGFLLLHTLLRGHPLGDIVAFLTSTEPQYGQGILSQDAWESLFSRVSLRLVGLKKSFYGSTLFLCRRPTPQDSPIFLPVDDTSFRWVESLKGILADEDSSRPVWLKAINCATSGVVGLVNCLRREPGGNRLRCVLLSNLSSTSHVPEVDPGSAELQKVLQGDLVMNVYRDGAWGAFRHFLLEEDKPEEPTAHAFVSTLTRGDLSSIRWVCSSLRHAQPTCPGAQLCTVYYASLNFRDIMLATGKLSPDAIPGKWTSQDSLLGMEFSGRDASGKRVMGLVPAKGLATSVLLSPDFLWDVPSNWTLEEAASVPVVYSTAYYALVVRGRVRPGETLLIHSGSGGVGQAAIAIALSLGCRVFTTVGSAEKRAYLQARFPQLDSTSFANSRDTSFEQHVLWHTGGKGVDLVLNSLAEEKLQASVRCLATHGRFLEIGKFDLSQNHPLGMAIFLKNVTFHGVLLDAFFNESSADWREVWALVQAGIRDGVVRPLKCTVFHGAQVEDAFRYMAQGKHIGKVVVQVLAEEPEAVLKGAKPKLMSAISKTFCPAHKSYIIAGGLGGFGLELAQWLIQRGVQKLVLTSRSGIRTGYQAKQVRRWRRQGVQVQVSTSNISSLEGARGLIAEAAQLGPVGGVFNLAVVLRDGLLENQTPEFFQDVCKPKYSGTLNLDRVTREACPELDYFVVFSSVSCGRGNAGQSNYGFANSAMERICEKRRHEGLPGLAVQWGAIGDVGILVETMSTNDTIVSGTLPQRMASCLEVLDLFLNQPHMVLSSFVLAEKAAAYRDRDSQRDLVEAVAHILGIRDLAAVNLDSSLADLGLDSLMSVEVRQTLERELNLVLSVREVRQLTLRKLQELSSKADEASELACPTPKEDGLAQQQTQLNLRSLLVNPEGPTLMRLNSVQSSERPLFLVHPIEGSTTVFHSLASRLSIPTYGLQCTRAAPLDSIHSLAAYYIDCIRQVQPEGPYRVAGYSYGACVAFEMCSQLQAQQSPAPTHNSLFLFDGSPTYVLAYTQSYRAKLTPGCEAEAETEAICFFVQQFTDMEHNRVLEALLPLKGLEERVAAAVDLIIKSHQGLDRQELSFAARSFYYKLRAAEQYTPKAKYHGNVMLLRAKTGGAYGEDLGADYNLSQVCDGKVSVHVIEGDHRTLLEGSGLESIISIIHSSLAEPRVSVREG

Fatty acid synthase [12] = biological target: T6, Fatty acid synthase; experiment: FAS thioesterase domain inhibitors, dose response, biochemical, endpoint fluorescence intensity, uHTS hits (AID 624327); format: functional;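 also: fluorescence from hydrolysis of an O-methyl fluorescein acyl ester substrate by the enzyme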
[13] = Fluorescence-based cell-based high throughput dose response assay for inhibitors of the interaction of nucleotide-binding oligomerization domain containing 2 (NOD2) and the receptor-interacting serine-threonine kinase 2 (RIPK2).; format: functional; settings: Homo sapiens
Streptokinase A = biological target: T7, Streptokinase A (Streptococcus pyogenes serotype M1, UniProt P10520); experiment: S. pyogenes streptokinase expression inhibitors, potency, dose response, plasminogen activation absorbance, OD405 (AID 1914); format: functional, Streptococcus pyogenes M1 GAS;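 also: secreted streptokinase activity via plasminogen activation per viability signal from cell pellet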
T7 sequence (P10520 whole entry): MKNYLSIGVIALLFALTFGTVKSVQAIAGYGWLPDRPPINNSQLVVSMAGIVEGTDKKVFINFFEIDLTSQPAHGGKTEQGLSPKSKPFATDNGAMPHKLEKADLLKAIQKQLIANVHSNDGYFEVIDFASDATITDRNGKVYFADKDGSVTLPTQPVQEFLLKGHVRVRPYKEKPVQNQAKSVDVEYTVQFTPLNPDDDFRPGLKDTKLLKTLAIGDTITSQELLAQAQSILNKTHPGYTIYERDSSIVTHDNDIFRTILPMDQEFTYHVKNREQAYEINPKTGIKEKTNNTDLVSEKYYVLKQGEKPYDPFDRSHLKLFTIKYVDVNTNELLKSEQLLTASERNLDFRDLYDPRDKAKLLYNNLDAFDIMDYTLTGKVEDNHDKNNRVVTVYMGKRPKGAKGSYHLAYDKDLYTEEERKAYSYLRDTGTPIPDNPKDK

[14] = system: Streptococcus sp. 'group A'; experiment: growth inhibition of control SK(-) GAS strain, dose response, counter-screen for streptokinase expression inhibitor project, luminescence, kanamycin, BacTiterGlo, confirmation (AID 1900); format: functional, organism-based
[15] = Luminescence Cell-Based Dose Retest to Confirm Inhibitors of Cancer Stem Cells. [Related pubchem assays (depositor defined):AID2717, AID2721]; format: functional; settings: Homo sapiens
Streptococcus = experiment: Group A Streptococcus viability loss, dose response, counter-screen for streptokinase expression inhibitor project, luminescence, BacTiterGlo (AID 1915); format: functional, organism-based;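 also: potency for reduction of bacterial viability or growth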

Chain of Arf-GAP with SH3 domain, ANK repeat and PH domain-containing protein 1 (Q9ULH1 whole entry, the tested form may be a part): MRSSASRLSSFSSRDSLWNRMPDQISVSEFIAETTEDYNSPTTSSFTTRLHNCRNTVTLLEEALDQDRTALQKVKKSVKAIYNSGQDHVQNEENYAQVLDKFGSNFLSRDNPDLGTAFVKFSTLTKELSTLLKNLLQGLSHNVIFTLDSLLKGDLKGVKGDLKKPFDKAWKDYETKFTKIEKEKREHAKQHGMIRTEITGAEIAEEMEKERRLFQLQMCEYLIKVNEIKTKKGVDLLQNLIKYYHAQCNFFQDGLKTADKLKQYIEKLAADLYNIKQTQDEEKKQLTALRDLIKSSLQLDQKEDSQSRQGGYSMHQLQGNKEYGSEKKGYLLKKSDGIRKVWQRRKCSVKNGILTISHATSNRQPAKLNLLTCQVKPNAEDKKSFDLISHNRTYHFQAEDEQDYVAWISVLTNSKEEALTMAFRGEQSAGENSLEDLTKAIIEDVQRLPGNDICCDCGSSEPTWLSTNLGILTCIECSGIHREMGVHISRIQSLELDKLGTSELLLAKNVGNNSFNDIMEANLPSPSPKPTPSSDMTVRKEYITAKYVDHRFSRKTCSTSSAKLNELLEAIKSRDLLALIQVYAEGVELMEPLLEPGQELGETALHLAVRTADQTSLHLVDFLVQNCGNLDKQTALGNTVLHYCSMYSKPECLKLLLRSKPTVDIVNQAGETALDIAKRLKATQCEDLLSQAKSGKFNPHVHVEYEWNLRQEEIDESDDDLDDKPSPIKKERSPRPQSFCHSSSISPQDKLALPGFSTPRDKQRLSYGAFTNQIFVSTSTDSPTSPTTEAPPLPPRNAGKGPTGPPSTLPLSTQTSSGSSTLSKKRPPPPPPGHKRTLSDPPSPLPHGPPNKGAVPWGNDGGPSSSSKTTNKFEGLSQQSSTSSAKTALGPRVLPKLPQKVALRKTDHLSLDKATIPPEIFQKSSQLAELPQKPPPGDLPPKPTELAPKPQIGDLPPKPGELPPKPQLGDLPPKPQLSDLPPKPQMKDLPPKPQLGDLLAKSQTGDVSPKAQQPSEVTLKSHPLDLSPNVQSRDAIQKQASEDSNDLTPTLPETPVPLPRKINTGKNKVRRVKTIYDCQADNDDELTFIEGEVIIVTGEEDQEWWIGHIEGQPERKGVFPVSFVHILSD

## O=C(CSc1ccccc1)Nc1ccc(-c2nc3ccccc3[nH]2)cc1
[1]
  IC50: 14.7 µM (inactive)

## CCCN(CC(=O)Nc1ccccc1C)C(=O)CCCOc1ccc(Br)cc1
[2]
  IC50: > 100 µM (inactive)

## Cc1nc2nc(SCC(=O)N3CCOCC3)nn2c(C)c1Cc1ccccc1
[3]
  AC50: 430 nM (active)

## COc1cccc2c1-c1c(O)cccc1C2=O
[4]
  AC50: 66.7 µM (active)
[5]
  IC50: 37.7 µM (inactive)
[6]
  IC50: 18.6 µM (active)

## Cc1c(-c2ccccc2)oc2c(C(=O)N3CCN(c4ccc([N+](=O)[O-])cc4)CC3)cccc2c1=O
Interleukin-8
  IC50: 40.2 µM (inactive)

## CN1CCN(C2=Nc3c(Cl)cc(Cl)c4cccc2c34)CC1
[5]
  IC50: 6.95 µM (active)
[6]
  IC50: 10.2 µM (active)

## CSc1ccccc1OCc1cc(C(=O)NCCn2nc(C)cc2C)no1
HEK293 [7]
  IC50: > 89.2 µM (inactive)
Insulin-degrading enzyme [8]
  EC50: > 54.7 µM (inactive)
HEK293 [9]
  EC50: > 54.7 µM (inactive)
Insulin-degrading enzyme [10]
  EC50: > 54.7 µM (inactive)

## C/C=C/c1ccc2c(c1)O[C@@H](CN(C)C(=O)Nc1ccc(OC)cc1)[C@@H](C)CN([C@@H](C)CO)S2(=O)=O
[3]
  AC50: 2080 nM (active)

## CCOC(=O)[C@]12Cc3cc(OC)ccc3[C@H]1N(C1CCCCC1)C(=O)c1ccccc12
Fatty acid synthase [11]
  IC50: 6.5 µM (active)
Fatty acid synthase [12]
  IC50: 8.86 µM (active)
[13]
  IC50: 2.5 µM (active)

## O=C(N/N=C/c1cccnc1)c1cc2c(ccc3ccccc32)o1
[1]
  IC50: 19.9 µM (inactive)

## CC(C)=CCCC1(C)C=Cc2c(c(C)cc3c2[nH]c2cc(O)ccc23)O1 (stereo unspecified)
HEK293 [7]
  IC50: 15.3 µM (inactive)
Streptokinase A
  EC50: > 150 µM (not active)
[14]
  EC50: 2.61 µM (active)
Insulin-degrading enzyme [8]
  EC50: 41 µM (inactive)
[15]
  AC50: 5.38 µM (active)
Streptococcus
  EC50: 5.07 µM (active)
HEK293 [9]
  EC50: > 55.9 µM (inactive)
Insulin-degrading enzyme [10]
  EC50: > 54.7 µM (inactive)

Source: ChEMBL document CHEMBL1201862, “PubChem BioAssay data set” (2004)
